According to US20130131128A1, “ASSOCIATION OF XANTHINE OXIDASE INHIBITORS AND ANGIOTENSIN II RECEPTOR ANTAGONISTS AND USE THEREOF” (MENARINI INTERNATIONAL OPERATIONS LUXEMBOURG S.A., priority 2010, published 2013):

What was measured:
hyperuricemia = conditions: clinical studies; cited from earlier work
[1] = system: spontaneously hypertensive rat (SHR); experiment: Systolic pressure (SBP) by tail cuff sphygmomanometer in conscious spontaneously hypertensive rats; type: in vivo; conditions: for SBP / Δ SBP: SHR + K oxonate; for SBP: 4 hours after last dose; for Δ SBP: difference vs Control + K oxonate; for Effect on systolic pressure (in words): 1-3-10 mg/kg per os, daily for 1 week, SHR
Description: (§1) Pharmacological activity of febuxostat and olmesartan medoxomil, alone or in association, was assessed in an experimental model of hyperuricemia in spontaneously hypertensive rat (SHR, Harlan Laboratories, Udine, Italy). Systolic pressure (SBP) was measured in non-anesthesized animals by means of a tail cuff sphygmomanometer (Blood Pressure Analysis System BP-2000, Visitech Systems, USA) equipped with an automatic system for data acquisition and processing.
(§2) All animals were preconditioned daily for 2 weeks to accustom them to instrumental measuring of the pressure before starting the test. Hyperuricemia was induced with administration of potassium oxonate (250 mg/kg IP, 2 hours after the last dose of drugs and 2 hours before the test), an uricase inhibitor capable of inducing experimental hyperuricemia. Plasma levels of uric acid were measured with a standard colorimetric enzymatic method. Febuxostat and/or olmesartan were administered orally once per day for 7 days, by gavage, at the doses of 1-3-10 mg/kg.
(§3) Parameters measured in conscious rats were systolic pressure (SBP) and plasma uric acid/urate levels (uricemia), as well as basal values, both after one week of treatment and 2 hours after administration of potassium oxonate. Blood was collected from a tail vein.
(§4) Uricemia and systolic pressure values were recorded 4 hours after the last dose of drugs or vehicle. Potassium oxonate (250 mg/kg IP) was administered 2 ore before the test. Each value is the average of 7-13 tests.

[2] = system: spontaneously hypertensive rat (SHR); experiment: Plasma uric acid (uricemia) in potassium oxonate-induced hyperuricemia in spontaneously hypertensive rats; type: in vivo; conditions: for Uricemia: SHR + K oxonate 250 mg/kg IP, 4 hours after last dose; for Δ Uricemia: SHR + K oxonate, difference vs Control + K oxonate; for Effect on hyperuricemia values (in words): oral, one week before potassium oxonate, 1-3-10 mg/kg, SHR
Description: as §1, §2, §3, §4

30 hypertensive subjects = conditions: monotherapy, only teenagers; cited from earlier work
[3] = 1 mg/kg day per os for one week
[4] = 3 mg/kg day per os for one week
[5] = 10 mg/kg day per os for one week

Cc1nc(-c2ccc(OCC(C)C)c(C#N)c2)sc1C(=O)O [Febuxostat, febuxostat]
Reduction of hyperuricemia compared with allopurinol (in words) (hyperuricemia): reduce hyperuricemia more effectively than allopurinol | SBP [1, 3]: 234 ± 19 mmHg | Δ SBP [1, 3]: −5 mmHg | SBP [1, 4]: 229 ± 24 mmHg | Δ SBP [1, 4]: −10 mmHg | SBP [1, 5]: 228 ± 21 mmHg | Δ SBP [1, 5]: −11 mmHg | Effect on systolic pressure (in words) [1]: slight inhibitory effect on systolic pressure | Uricemia [2, 3]: 1.02 ± 0.07 mg/dL | Δ Uricemia [2, 3]: -0.15 mg/dL | Uricemia [2, 4]: 0.78 ± 0.06 mg/dL | Δ Uricemia [2, 4]: -0.39 mg/dL | Uricemia [2, 5]: 0.49 ± 0.05 mg/dL | Δ Uricemia [2, 5]: -0.68 mg/dL | Effect on hyperuricemia values (in words) [2]: reduced in a significant and dose-dependent manner the hyperuricemia values

CCCc1nc(C(C)(C)O)c(C(=O)OCc2oc(=O)oc2C)n1Cc1ccc(-c2ccccc2-c2nnn[nH]2)cc1 [Olmesartan, olmesartan medoxomil]
SBP [1, 3]: 217 ± 14 mmHg | Δ SBP [1, 3]: −22 mmHg | SBP [1, 4]: 202 ± 10 mmHg | Δ SBP [1, 4]: −37 mmHg | SBP [1, 5]: 180 ± 11 mmHg | Δ SBP [1, 5]: −59 mmHg | Effect on systolic pressure (in words) [1]: reduced systolic pressure in a dose-dependent manner | Uricemia [2, 3]: 1.16 ± 0.11 mg/dL | Δ Uricemia [2, 3]: -0.01 mg/dL | Uricemia [2, 4]: 1.10 ± 0.12 mg/dL | Δ Uricemia [2, 4]: -0.07 mg/dL | Uricemia [2, 5]: 1.08 ± 0.07 mg/dL | Δ Uricemia [2, 5]: -0.09 mg/dL | Effect on hyperuricemia values (in words) [2]: weakly active

Oc1ncnc2[nH]ncc12 [allopurinol]
Anti-hypertensive effect (in words) (30 hypertensive subjects): has shown an anti-hypertensive effect
